Measured values from ChEMBL document CHEMBL5316306 (J Med Chem, 2023).
The source made the active and inactive calls. The rule behind the calls is not given here.

Experiments:
[1] = biological target: T1, Proteasome Macropain subunit MB1 (Homo sapiens, UniProt P28074); assay: Inhibition of human 20s constitutive proteasome beta-5c
T1 sequence (P28074 whole entry): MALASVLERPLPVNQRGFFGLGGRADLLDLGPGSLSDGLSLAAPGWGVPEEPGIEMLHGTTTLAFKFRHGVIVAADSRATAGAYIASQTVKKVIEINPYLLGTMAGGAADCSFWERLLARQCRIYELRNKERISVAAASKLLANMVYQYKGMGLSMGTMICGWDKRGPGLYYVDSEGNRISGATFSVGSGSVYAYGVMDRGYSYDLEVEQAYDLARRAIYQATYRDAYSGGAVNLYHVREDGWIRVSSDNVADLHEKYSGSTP

[2] = biological target: T2, Proteasome subunit beta type-8 (Homo sapiens, UniProt P28062); assay: Inhibition of human 20s immunoproteasome beta-5i subunit
T2 sequence (P28062 whole entry): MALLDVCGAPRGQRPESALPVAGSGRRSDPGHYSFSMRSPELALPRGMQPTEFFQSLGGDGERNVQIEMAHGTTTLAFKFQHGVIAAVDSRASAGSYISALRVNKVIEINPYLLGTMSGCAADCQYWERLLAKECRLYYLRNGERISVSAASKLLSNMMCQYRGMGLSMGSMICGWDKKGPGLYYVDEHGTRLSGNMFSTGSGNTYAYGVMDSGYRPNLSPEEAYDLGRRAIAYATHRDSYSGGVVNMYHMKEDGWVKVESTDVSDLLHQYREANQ

[3] = biological target: T3, Proteasome subunit beta type-9 (Homo sapiens, UniProt P28065); assay: Inhibition of human 20s immunoproteasome beta-1i subunit
T3 sequence (P28065 whole entry): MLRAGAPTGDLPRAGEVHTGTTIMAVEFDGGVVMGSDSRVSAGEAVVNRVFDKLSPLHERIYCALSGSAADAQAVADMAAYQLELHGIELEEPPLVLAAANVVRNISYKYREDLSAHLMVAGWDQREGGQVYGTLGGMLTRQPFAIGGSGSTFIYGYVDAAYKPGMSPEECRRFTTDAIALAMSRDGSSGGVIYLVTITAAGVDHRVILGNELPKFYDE

[4] = biological target: T4, Proteasome subunit beta type-10 (Homo sapiens, UniProt P40306); assay: Inhibition of human 20s immunoproteasome beta-2i subunit
T4 sequence (P40306 whole entry): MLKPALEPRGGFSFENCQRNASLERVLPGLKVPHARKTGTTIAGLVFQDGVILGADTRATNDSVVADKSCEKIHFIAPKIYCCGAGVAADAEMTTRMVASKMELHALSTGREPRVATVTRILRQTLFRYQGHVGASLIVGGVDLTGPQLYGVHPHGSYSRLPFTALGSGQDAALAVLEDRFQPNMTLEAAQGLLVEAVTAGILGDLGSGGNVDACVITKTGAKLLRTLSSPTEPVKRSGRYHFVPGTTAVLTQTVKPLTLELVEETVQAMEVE

HepG2 = assay: Cytotoxicity against human HepG2 cells after 72 hrs by celltitre-glo assay; type: functional, cell-based; conditions: HepG2, 72 h
MM1.S [5] = assay: Cytotoxicity against human MM1.S cells after 72 hrs by celltitre-glo assay; type: functional, cell-based
RPMI-8226 [6] = assay: Cytotoxicity against human RPMI-8226 cells after 72 hrs by celltitre-glo assay; type: functional, cell-based; conditions: RPMI-8226, 72 h
MM1.S [7] = assay: Synergistic cytotoxic activity against human MM1.S cells after 72 hrs in presence of 0.01 uM of (S)-(3-((2-(2-(1H-indol-3-yl)-2-oxoacetamido)-4-(tert-butylamino)-4-oxobutanamido)methyl)phenyl)boronic acid by celltitre-glo assay; type: functional, cell-based
RPMI-8226 [8] = assay: Synergistic cytotoxic activity against human RPMI-8226 cells after 72 hrs in presence of 0.5 uM of (S)-(3-((2-(2-(1H-indol-3-yl)-2-oxoacetamido)-4-(tert-butylamino)-4-oxobutanamido)methyl)phenyl)boronic acid by celltitre-glo assay; type: functional, cell-based
[9] = biological target: T5, Proteasome Macropain subunit MB1 (Homo sapiens) (UniProt P28074); assay: Inhibition of 20s constitutive proteasome beta-5c (unknown origin) assessed as recovery half life time
T5 sequence (whole entry): T1 sequence (P28074 whole entry)

[10] = biological target: T5, Proteasome Macropain subunit MB1 (Homo sapiens); assay: Time dependent inhibition of human 20s constitutive proteasome beta-5c assessed as restoration of enzyme activity at 10 nM using suc-LLVY-AMC as substrate; conditions: time <= 90.0 min, TDE = time-dependent effect
[11] = biological target: T6, Proteasome subunit beta type-8 (Homo sapiens) (UniProt P28062); conditions: dose 250.0 nM, time <= 90.0 min
T6 sequence (whole entry): T2 sequence (P28062 whole entry)

[12] = biological target: T2, Proteasome subunit beta type-8; assay: Inhibition of 20s immunoproteasome beta-5i subunit (unknown origin)
[13] = biological target: T1, Proteasome Macropain subunit MB1; assay: Inhibition of 20s constitutive proteasome beta-5c (unknown origin)
PBMC = assay: Cytotoxicity against human PBMC cells expressing 20s immunoproteasome beta-5i after 72 hrs by celltitre-glo assay; type: functional, cell-based
[14] = biological target: T5, Proteasome Macropain subunit MB1 (Homo sapiens); assay: Inhibition of human 20s constitutive proteasome beta-5c assessed as restoration of enzyme activity at 2 nM incubated for 1 hr followed by compound removal by dialysis measured after 1 hr
[15] = biological target: T5, Proteasome Macropain subunit MB1 (Homo sapiens); assay: Time dependent inhibition of human 20s constitutive proteasome beta-5c assessed as restoration of enzyme activity at 10 nM using suc-LLVY-AMC as substrate incubated upto 90 mins
[16] = biological target: T6, Proteasome subunit beta type-8 (Homo sapiens); assay: Time dependent inhibition of human 20s immunoproteasome beta-5i subunit assessed as restoration of enzyme activity at 250 nM using Ac-ANW-AMC as substrate incubated upto 90 mins
[17] = biological target: Procathepsin L (Homo sapiens) (UniProt P07711); assay: Inhibition of human cathepsin L at 100 uM
Sequence of Procathepsin L (Homo sapiens) (P07711 114-333 limits assumed): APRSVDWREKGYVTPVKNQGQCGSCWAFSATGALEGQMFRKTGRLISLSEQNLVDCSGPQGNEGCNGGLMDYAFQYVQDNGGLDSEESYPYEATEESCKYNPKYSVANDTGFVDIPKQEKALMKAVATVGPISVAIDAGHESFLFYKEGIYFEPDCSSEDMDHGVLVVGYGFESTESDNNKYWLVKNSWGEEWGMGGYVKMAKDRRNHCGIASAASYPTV

Trypsin (Homo sapiens) = Trypsin (Homo sapiens) (UniProt P07477+P07478+P35030); assay: Inhibition of human trypsin at 33.3 uM; type: protein assay
[18] = biological target: Chymotrypsin (Homo sapiens) (UniProt Q99895+P17538+P40313+Q6GPI1); assay: Inhibition of human chymotrypsin at 11.1 uM; type: protein assay
[19] = biological target: T5, Proteasome Macropain subunit MB1 (Homo sapiens); assay: Inhibition of 20s constitutive proteasome beta-5c in human HepG2 cells incubated by proteasome glo assay kit analysis; type: cell-based; conditions: time <= 1.0 hrs
[20] = biological target: T6, Proteasome subunit beta type-8 (Homo sapiens); assay: Inhibition of 20s immunoproteasome beta-5i in human PBMC cells incubated by proteasome glo assay kit analysis; type: cell-based; conditions: time <= 1.0 hrs
MM1.S [21] = assay: Synergistic cytotoxic activity against human MM1.S cells after 72 hrs in presence of 0.02 uM of (S)-N5-(tert-butyl)-N1-((S)-1-(((4-fluoronaphthalen-1-yl)methyl)amino)-3-methoxy-1-oxopropan-2-yl)-2-((4-methylphenyl)sulfonamido)pentanediamide by celltitre-glo assay; type: functional, cell-based
RPMI-8226 [22] = assay: Synergistic cytotoxic activity against human RPMI-8226 cells after 72 hrs in presence of 0.25 uM of (S)-N5-(tert-butyl)-N1-((S)-1-(((4-fluoronaphthalen-1-yl)methyl)amino)-3-methoxy-1-oxopropan-2-yl)-2-((4-methylphenyl)sulfonamido)pentanediamide by celltitre-glo assay; type: functional, cell-based; conditions: RPMI-8226, 72 h

IC50 [1]	IC50 [2]	Structure (SMILES)	also measured
0.21 µM	> 100 µM	Cc1ccc(S(=O)(=O)N[C@@H](CC(=O)NC(C)(C)C)C(=O)NCc2cccc(B(O)O)c2)cc1	
0.085 µM	11.3 µM	CC(C)(C)NC(=O)CC[C@H](NC(=O)C(=O)c1c[nH]c2ccccc12)C(=O)NCc1cccc(B(O)O)c1	IC50 [3]: > 33.3 µM; IC50 [4]: > 33.3 µM; EC50 (HepG2): 49.1 µM; EC50 (MM1.S [5]): 0.76 µM; EC50 (RPMI-8226 [6]): 15 µM
> 100 µM	> 100 µM	CC(C)(C)NC(=O)C[C@H](NC(=O)CN1CCOCC1)C(=O)NCc1cccc(B(O)O)c1	
5.9 µM	> 100 µM	Cc1cc(C(=O)N[C@@H](CC(=O)NC(C)(C)C)C(=O)NCc2cccc(B(O)O)c2)no1	
		COC[C@H](NC(=O)[C@H](CCC(=O)NC(C)(C)C)NS(=O)(=O)c1ccc(C)cc1)C(=O)NCc1ccc(F)c2ccccc12	EC50 (MM1.S [5]): 0.125 µM; EC50 (RPMI-8226 [6]): 0.69 µM; EC50 (MM1.S [7]): 0.125 µM; EC50 (RPMI-8226 [8]): 0.006 µM
> 100 µM	> 100 µM	Cc1ccc(S(=O)(=O)N[C@@H](CC(=O)NC(C)(C)C)C(=O)NCc2ccc(B(O)O)s2)cc1	
0.75 µM	47.9 µM	CC(C)(C)NC(=O)C[C@H](NC(=O)CCc1ccc(F)cc1)C(=O)NCc1cccc(B(O)O)c1	
> 100 µM	> 100 µM	Cc1ccc(S(=O)(=O)N[C@@H](CC(=O)NC(C)(C)C)C(=O)NCc2ccccc2)cc1	
> 100 µM	> 100 µM	Cc1ccc(S(=O)(=O)N[C@@H](CC(=O)NC(C)(C)C)C(=O)NCc2ccco2)cc1	
3.8 µM	22.8 µM	CC(C)(C)NC(=O)C[C@H](NC(=O)c1cc(-c2ccccc2)ccn1)C(=O)NCc1cccc(B(O)O)c1	
		CC(C)C[C@H](NC(=O)[C@H](Cc1ccccc1)NC(=O)c1cnccn1)B(O)O [BORTEZOMIB]	TIME [9]: 1.83 h; TDI [10]: Tde; EC50 (HepG2): 0.013 µM; EC50 (MM1.S [5]): 0.002 µM; EC50 (RPMI-8226 [6]): 0.004 µM; TDI [11]: Tde
		CC(C)C[C@H](NC(=O)CN1CCOCC1)C(=O)N[C@@H](C[C@H]1CC[C@H](C2CCCCC2)CC1)C(=O)N[C@@H](Cc1ccccc1)C(=O)N[C@@H](C)C(=O)[C@@]1(C)CO1	IC50 [12]: 22.8 µM
> 100 µM	> 100 µM	Cc1ccc(S(=O)(=O)N[C@@H](CC(=O)NC(C)(C)C)C(=O)Nc2ccc(B(O)O)cc2)cc1	
> 100 µM	> 100 µM	Cc1ccc(S(=O)(=O)N[C@@H](CC(=O)NC(C)(C)C)C(=O)Nc2cccc(B(O)O)c2)cc1	
		COc1ccc(Cc2noc(CN(C(=O)COc3ccc(Br)cc3)C(C)C)n2)cc1OC	IC50 [13]: 0.037 µM
1.4 µM	57.7 µM	CC(C)(C)NC(=O)C[C@H](NC(=O)c1cc(Cl)ccc1Cl)C(=O)NCc1cccc(B(O)O)c1	
0.01 µM	7.1 µM	CC(C)(C)NC(=O)C[C@H](NC(=O)C(=O)c1c[nH]c2ccccc12)C(=O)NCc1cccc(B(O)O)c1	EC50 (PBMC): > 50 µM; IC50 [3]: > 33.3 µM; IC50 [4]: > 33.3 µM; inhibition [14]: inactive; TDI [15]: inactive; TDI [16]: inactive; inhibition [17]: inactive; inhibition (Trypsin (Homo sapiens)): inactive; inhibition [18]: inactive; inhibition [19]: Dose-Dependent Effect; inhibition [20]: Dose-Dependent Effect; EC50 (HepG2): 3.2 µM; EC50 (MM1.S [5]): 0.057 µM; EC50 (RPMI-8226 [6]): 1.67 µM; EC50 (MM1.S [21]): 0.01 µM; EC50 (RPMI-8226 [22]): 0.173 µM

IC50 [1]	IC50 [2]	Structure (SMILES)	also measured
0.005 µM	> 100 µM	CCCc1ccc(OCC(=O)N(Cc2nc(-c3cccnc3)no2)C(C)C)cc1	IC50 [13]: 0.027 µM; IC50 [12]: 2.17 µM
> 100 µM	> 100 µM	Cc1ccc(S(=O)(=O)N[C@@H](CC(=O)NC(C)(C)C)C(=O)NCc2cccc(F)c2)cc1	
3.8 µM	> 100 µM	CC(C)(C)NC(=O)C[C@H](NC(=O)c1ccccc1)C(=O)NCc1cccc(B(O)O)c1	
		COC[C@H](NC(=O)c1cc(C)on1)C(=O)N[C@@H](COC)C(=O)N[C@@H](CC(C)C)C(=O)[C@@]1(C)CO1	IC50 [13]: 0.02 µM; IC50 [12]: 0.3 µM
> 100 µM	> 100 µM	Cc1ccc(S(=O)(=O)N[C@@H](CC(=O)NC(C)(C)C)C(=O)NCc2cccc(C(=O)O)c2)cc1	
> 100 µM	> 100 µM	Cc1ncc(C(=O)N[C@@H](CC(=O)NC(C)(C)C)C(=O)NCc2cccc(B(O)O)c2)s1	
> 100 µM	> 100 µM	CC(C)(C)NC(=O)C[C@H](NC(=O)c1cnccn1)C(=O)NCc1cccc(B(O)O)c1	
24.1 µM	> 100 µM	CC(C)(C)NC(=O)C[C@H](NC(=O)C(=O)C1CC1)C(=O)NCc1cccc(B(O)O)c1	
0.7 µM	69.2 µM	CC(C)(C)NC(=O)C[C@H](NC(=O)Cc1c[nH]c2ccccc12)C(=O)NCc1cccc(B(O)O)c1	
> 100 µM	> 100 µM	Cc1ccc(S(=O)(=O)N[C@@H](CC(=O)NC(C)(C)C)C(=O)NCc2ccc(B(O)O)cc2)cc1	
> 100 µM	> 100 µM	Cc1ccc(S(=O)(=O)N[C@@H](CC(=O)NC(C)(C)C)C(=O)NCc2cccs2)cc1	
2.6 µM	57.2 µM	Cc1ccc(S(=O)(=O)N[C@@H](CC(=O)NC(C)(C)C)C(=O)NCc2ccc(B(O)O)o2)cc1	
> 100 µM	> 100 µM	Cc1ccc(S(=O)(=O)N[C@@H](CC(=O)NC(C)(C)C)C(=O)NCc2cccc(O)c2)cc1	
> 100 µM	> 100 µM	Cc1ccc(S(=O)(=O)N[C@@H](CC(=O)NC(C)(C)C)C(=O)NCc2cccc(C(F)(F)F)c2)cc1	
3 µM	45.2 µM	COC[C@H](NC(=O)C(=O)c1c[nH]c2ccccc12)C(=O)NCc1cccc(B(O)O)c1	
0.24 µM	> 100 µM	CC(C)(C)NC(=O)C[C@H](NC(=O)C(=O)c1ccccc1)C(=O)NCc1cccc(B(O)O)c1	
